Biological target: human activated kallikrein enzyme (Homo sapiens, UniProt P03952)
Assay: Plasma kallikrein inhibition, fluorogenic PFR-AMC substrate, 500 pM activated kallikrein format
Type: biochemical
Conditions: 500 pM activated kallikrein, 300 uM PFR-AMC, 30 min preincubation, 10 min reaction; read-out: Primary Dose Response Assay: Average EC50
Outline: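 500 pM enz + cpd, 30 min RT preinc; start w/ PFR-AMC 300 uM; 10 min RT; Ex380/Em460. Buffer: Tris 20 mM pH 7.5, EDTA 1 mM, NaCl 150 mM, PEG-400 0.1%, Triton 0.1%. EC50.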

human activated kallikrein enzyme, sequence (P03952 391-638 limits assumed): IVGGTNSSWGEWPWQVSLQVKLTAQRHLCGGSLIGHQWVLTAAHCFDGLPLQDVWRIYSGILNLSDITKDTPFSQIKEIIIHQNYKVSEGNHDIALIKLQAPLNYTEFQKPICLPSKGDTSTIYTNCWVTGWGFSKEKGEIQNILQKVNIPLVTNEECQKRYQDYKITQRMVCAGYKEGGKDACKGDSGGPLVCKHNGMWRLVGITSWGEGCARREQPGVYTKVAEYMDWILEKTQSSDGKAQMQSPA
human activated kallikrein enzyme, sequence (P03952 20-390 partner limits assumed): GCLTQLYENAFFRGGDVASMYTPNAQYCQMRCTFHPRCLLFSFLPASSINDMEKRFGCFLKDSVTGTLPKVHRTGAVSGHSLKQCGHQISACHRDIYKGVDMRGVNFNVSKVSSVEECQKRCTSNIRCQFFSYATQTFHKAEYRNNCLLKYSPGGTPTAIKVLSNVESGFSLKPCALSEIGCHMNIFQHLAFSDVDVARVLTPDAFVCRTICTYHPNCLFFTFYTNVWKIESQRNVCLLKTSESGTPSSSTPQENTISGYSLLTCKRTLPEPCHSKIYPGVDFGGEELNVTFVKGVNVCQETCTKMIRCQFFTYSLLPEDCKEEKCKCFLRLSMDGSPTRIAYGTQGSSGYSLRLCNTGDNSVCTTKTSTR

| Compound | EC50 [nM] |
| --- | --- |
| Cc1ccnc([C@H]2C[C@@H]2C(=O)Nc2cccc(S(=O)(=O)Cc3cn4cc(C5CC5)cc(N5CC(=O)N(C)C5=O)c4n3)c2)n1 [Example I-646, (1S,2S)—N-(3-(((6-cyclopropyl-8-(3-methyl-2,4-dioxoimidazolidin-1-yl)imidazo[1,2-a]pyridin-2-yl)methyl)sulfonyl)phenyl)-2-(4-methylpyrimidin-2-yl)cyclopropane-1-carboxamide] | > 6000 |
| O=C(Nc1cc(NCc2cn3cc(C4CC4)ccc3n2)ccn1)[C@H]1C[C@@H]1c1cc(Cl)ncn1 (racemic) [Example I-210, rac-(1S*,2S*)-2-(6-chloropyrimidin-4-yl)-N-(4-(((6-cyclopropylimidazo[1,2-a]pyridin-2-yl)methyl)amino)pyridin-2-yl)cyclopropane-1-carboxamide] | 100 to 1000 |
| Cc1ccnc([C@H]2C[C@@H]2C(=O)Nc2cc(OC(C)c3cn4cc(C5CC5)cc(N5CC(=O)NC5=O)c4n3)cnn2)n1 (stereo partly drawn) [Example 39, (1S,2S)—N-(5-(1-(6-cyclopropyl-8-(2,4-dioxoimidazolidin-1-yl)imidazo[1,2-a]pyridin-2-yl)ethoxy)pyridazin-3-yl)-2-(4-methylpyrimidin-2-yl)cyclopropane-1-carboxamide] | 1 to 10 |
| Cc1ccnc([C@H]2C[C@@H]2C(=O)Nc2nncc(NCc3cn4cc(C5CC5)cc(N5CC(=O)N(C)C5=O)c4n3)n2)n1 [Example I-651, (1S,2S)—N-(5-(((6-cyclopropyl-8-(3-methyl-2,4-dioxoimidazolidin-1-yl)imidazo[1,2-a]pyridin-2-yl)methyl)amino)-1,2,4-triazin-3-yl)-2-(4-methylpyrimidin-2-yl)cyclopropane-1-carboxamide] | < 1 |
| O=C(Nc1cc(NCc2cn3cc(C4CC4)ccc3n2)ncn1)[C@H]1C[C@@H]1c1cc(Cl)ccn1 (racemic) [Example I-265, rac-(1S*,2S*)-2-(4-chloropyridin-2-yl)-N-(6-(((6-cyclopropylimidazo[1,2-a]pyridin-2-yl)methyl)amino)pyrimidin-4-yl)cyclopropane-1-carboxamide] | 1 to 10 |
| O=C(Nc1cc(NCc2cn3cc(Cl)ccc3n2)ccn1)[C@H]1C[C@@H]1c1cccc(Cl)c1 [Example I-253, (1S,2S)-N-(4-(((6-chloroimidazo[1,2-a]pyridin-2-yl)methyl)amino)pyridin-2-yl)-2-(3-chlorophenyl)cyclopropane-1-carboxamide] | 1 to 10 |
| Cc1ccnc([C@H]2C[C@@H]2C(=O)Nc2cc(NC(CO)c3cn4cc(C5CC5)cc(N5CC(=O)N(C)C5=O)c4n3)nc(C)n2)n1 (stereo partly drawn) [Example I-650, (1S,2S)—N-(6-((1-(6-cyclopropyl-8-(3-methyl-2,4-dioxoimidazolidin-1-yl)imidazo[1,2-a]pyridin-2-yl)-2-hydroxyethyl)amino)-2-methylpyrimidin-4-yl)-2-(4-methylpyrimidin-2-yl)cyclopropane-1-carboxamide] | < 1 |
| Cc1ccnc([C@H]2C[C@@H]2C(=O)Nc2nncc(OC(C)c3cn4cc(C5CC5)cc(N5CC(=O)N(C)C5=O)c4n3)n2)n1 (stereo partly drawn) [Example 672, (1S,2S)—N-(5-(1-(6-cyclopropyl-8-(3-methyl-2,4-dioxoimidazolidin-1-yl)imidazo[1,2-a]pyridin-2-yl)ethoxy)-1,2,4-triazin-3-yl)-2-(4-methylpyrimidin-2-yl)cyclopropane-1-carboxamide] | < 1 |
| O=C(Nc1cc(NCc2cn3cc(C4CC4)ccc3n2)ncn1)[C@@H]1C[C@H]1c1cccc(Cl)c1 (single isomer, unassigned) [Example 56] | 100 to 1000 |
| Cc1ccnc([C@H]2C[C@@H]2C(=O)Nc2cc(CCc3cn4cc(C5CC5)cc(N5CC(=O)N(C)C5=O)c4n3)ccn2)n1 [Example I-653, (1S,2S)—N-(4-(2-(6-cyclopropyl-8-(3-methyl-2,4-dioxoimidazolidin-1-yl)imidazo[1,2-a]pyridin-2-yl)ethyl)pyridin-2-yl)-2-(4-methylpyrimidin-2-yl)cyclopropane-1-carboxamide] | < 1 |
| O=C(Nc1cc(N(CCO)Cc2cn3cc(C4CC4)ccc3n2)ncn1)[C@H]1C[C@@H]1c1cccc(Cl)c1 [Example 77, (1S,2S)-2-(3-chlorophenyl)-N-(6-(((6-cyclopropylimidazo[1,2-a]pyridin-2-yl)methyl)(2-hydroxyethyl)amino)pyrimidin-4-yl)cyclopropane-1-carboxamide] | 10 to 100 |
| COc1cccc([C@H]2C[C@@H]2C(=O)Nc2cc(NCc3cn4cc(C5CC5)ccc4n3)ncn2)c1 (racemic) [Example 53, rac-(1S*,2S*)-N-(6-(6-cyclopropylimidazo[1,2-a]pyridin-2-yl)methyl)amino)pyrimidin-4-yl)-2-(3-methoxyphenyl)cyclopropane-1-carboxamide] | 100 to 1000 |
| O=C(Nc1cc(NCc2cn3cc(C4CC4)ccc3n2)ncn1)[C@H]1C[C@@H]1c1cc(Cl)ncn1 (racemic) [Example I-176, rac-(1S*,2S*)-2-(6-chloropyrimidin-4-yl)-N-(6-(((6-cyclopropylimidazo[1,2-a]pyridin-2-yl)methyl)amino)pyrimidin-4-yl)cyclopropane-1-carboxamide] | 100 to 1000 |
| O=C(Nc1cc(N2CC[C@@H](O)[C@@H]2c2cn3cc(C4CC4)ccc3n2)ncn1)[C@H]1C[C@@H]1c1cccc(Cl)c1 [Example 485, (1S,2S)-2-(3-chlorophenyl)-N-(6-((2S,3R)-2-(6-cyclopropylimidazo[1,2-a]pyridin-2-yl)-3-hydroxypyrrolidin-1-yl)pyrimidin-4-yl)cyclopropane-1-carboxamide] | 1000 to 6000 |
| Cc1ccnc([C@H]2C[C@@H]2C(=O)Nc2cc(NCc3cn4cc(C5CC5(F)F)cc(N5CC(=O)N(C)C5=O)c4n3)ncn2)n1 (stereo partly drawn) [Example 535, (1S,2S)-N-(6-(((6-(2,2-difluorocyclopropyl)-8-(3-methyl-2,4-dioxoimidazolidin-1-yl)imidazo[1,2-a]pyridin-2-yl)methyl)amino)pyrimidin-4-yl)-2-(4-methylpyrimidin-2-yl)cyclopropane-1-carboxamide] | < 1 |
| O=C(Nc1cc(OCc2cn3cc(C4CC4)ccc3n2)ncn1)[C@H]1C[C@@H]1c1cccc(Cl)c1 (racemic) [Example 104, rac-(1S*,2S*)-2-(3-chlorophenyl)-N-(6-((6-cyclopropylimidazo[1,2-a]pyridin-2-yl)methoxy)pyrimidin-4-yl)cyclopropane-1-carboxamide] | 100 to 1000 |
| O=C(Nc1cc(NCc2cn3cc(C4CC4)ccc3n2)ncn1)[C@H]1C[C@@H]1c1ncn2ccc(Cl)c(F)c12 (racemic) [Example 504, rac-(1S*,2S*)-2-(7-chloro-8-fluoroimidazo[1,5-a]pyridin-1-yl)-N-(6-(((6-cyclopropylimidazo[1,2-a]pyridin-2-yl)methyl)amino)pyrimidin-4-yl)cyclopropane-1-carboxamide] | 10 to 100 |
| Cc1cc(NC(=O)[C@H]2C[C@@H]2c2nccc(C)n2)nc(OCc2cn3cc(C4CC4)cc(N4CC(=O)N(C)C4=O)c3n2)n1 [Example I-652, (1S,2S)—N-(2-((6-cyclopropyl-8-(3-methyl-2,4-dioxoimidazolidin-1-yl)imidazo[1,2-a]pyridin-2-yl)methoxy)-6-methylpyrimidin-4-yl)-2-(4-methylpyrimidin-2-yl)cyclopropane-1-carboxamide] | < 1 |
| O=C(Nc1cc(NCc2cn3cc(C4CC4)ccc3n2)ncn1)[C@H]1C[C@@H]1c1cc(Cl)cnn1 (racemic) [Example I-178, rac-(1S*,2S*)-2-(5-chloropyridazin-3-yl)-N-(6-(((6-cyclopropylimidazo[1,2-a]pyridin-2-yl)methyl)amino)pyrimidin-4-yl)cyclopropane-1-carboxamide] | 100 to 1000 |
| Cc1ccnc([C@H]2C[C@@H]2C(=O)Nc2cc(OCc3cn4cc(C5CC5)cc(N5CC(=O)N(C)C5=O)c4n3)nc(C(C)O)n2)n1 (stereo partly drawn) [Example 662, (1S,2S)—N-(6-((6-cyclopropyl-8-(3-methyl-2,4-dioxoimidazolidin-1-yl)imidazo[1,2-a]pyridin-2-yl)methoxy)-2-(1-hydroxyethyl)pyrimidin-4-yl)-2-(4-methylpyrimidin-2-yl)cyclopropane-1-carboxamide] | < 1 |
| O=C(O)COc1ccc(Cl)cc1[C@H]1C[C@@H]1C(=O)Nc1cc(NCc2cn3cc(C4CC4)ccc3n2)ncn1 (racemic) [Example 315, rac-3-(4-chloro-2-((1S*,2S*)-2-((6-(((6-cyclopropylimidazo[1,2-a]pyridin-2-yl)methyl)amino)pyrimidin-4-yl)carbamoyl)cyclopropyl)phenoxy)acetic acid] | 100 to 1000 |
| O=C(Nc1cc(N2C[C@@H](CO)C[C@@H]2c2cn3cc(C4CC4)ccc3n2)ncn1)[C@H]1C[C@@H]1c1cc(Cl)ccn1 [Example 442, (1S,2S)-2-(4-chloropyridin-2-yl)-N-(6-((2R,4S)-2-(6-cyclopropylimidazo[1,2-a]pyridin-2-yl)-4-(hydroxymethyl)pyrrolidin-1-yl)pyrimidin-4-yl)cyclopropane-1-carboxamide] | 1000 to 6000 |
| O=C(Nc1cc(NCc2cn3cc(C4CC4)ccc3n2)ncn1)[C@H]1C[C@@H]1c1cccc(C2CC2)c1 (racemic) [Example 351, rac-(1S*,2S*)—N-(6-(((6-cyclopropylimidazo[1,2-a]pyridin-2-yl)methyl)amino)pyrimidin-4-yl)-2-(3-cyclopropylphenyl)cyclopropane-1-carboxamide] | > 6000 |
| COc1cc(NC(=O)[C@H]2C[C@@H]2c2nccc(C)n2)nc(OCc2cn3cc(C4CC4)cc(N4CC(=O)N(C)C4=O)c3n2)c1 [Example 38, (1S,2S)-N-(6-((6-cyclopropyl-8-(3-methyl-2,4-dioxoimidazolidin-1-yl)imidazo[1,2-α]pyridin-2-yl)methoxy)-4-methoxypyridin-2-yl)-2-(4-methylpyrimidin-2-yl)cyclopropane-1-carboxamide] | 1 to 10 |

— patent US20240228488A1 (TAKEDA PHARMACEUTICAL COMPANY LIMITED, priority 2021, published 2024)
